Measurements taken from paper PMC5224920, “Assessing the mechanism and therapeutic potential of modulators of the human Mediator complex-associated protein kinases” (eLife, 2016).

Tested on: 12 single or co-culture in vitro tissue models of primary cells
Assay: Culture/co-culture cell model panel, extracellular biomarkers (DiscoveRx); on CCL2/MCP-1: reference of the scale not given here; on CD38: reference of the scale not given here; on CD40: reference of the scale not given here; on CD69: reference of the scale not given here; on CXCL8/IL-8: reference of the scale not given here; on CXCL9/MIG: reference of the scale not given here; on IL-1alpha: reference of the scale not given here; on M-CSF: reference of the scale not given here; on PBMC Cytotoxicity: reference of the scale not given here
Assay type: cell-based, human
[1] = /Mphg Huvec+macrophages, 1.00E0 nM
[2] = /Mphg Huvec+macrophages, 1.00E1 nM
[3] = /Mphg Huvec+macrophages, 1.00E2 nM
[4] = /Mphg Huvec+macrophages, 1.00E3 nM
[5] = /Mphg Huvec+macrophages, 1.00E4 nM

## CN1c2ccc(-c3cncc(Cl)c3N3CCC4(CC3)CNC(=O)O4)cc2CS1(=O)=O [CMPD2]
/HDFNo, 1.00E3 nM
  Collagen III: 0.037
/HDFNo, 1.00E4 nM
  CCL2/MCP-1: 0.068
  CD54/ICAM-1: 0.057
  CD106/VCAM-1: 0.067
  Collagen I: 0.071
  Collagen III: 0.073
[1]
  CCL2/MCP-1: 0.022
  CCL3/MIP-1alpha: 0.000424
  CD40: 0.00851
  CD69: 0.038
  CD106/VCAM-1: 0.069
  CXCL8/IL-8: 0.053
  IL-1alpha: 0.041
  M-CSF: -0.019
  SRB: -0.007
  SRB-Mphg: 0.018
  sIL-10: 0.074
[2]
  CCL2/MCP-1: -0.032
  CCL3/MIP-1alpha: -0.016
  CD40: -0.000836
  CD69: 0.026
  CD106/VCAM-1: 0.052
  CXCL8/IL-8: -0.00092
  IL-1alpha: 0.023
  M-CSF: -0.033
  SRB: -0.013
  SRB-Mphg: 0.006
  sIL-10: 0.045
[3]
  CCL2/MCP-1: -0.044
  CCL3/MIP-1alpha: -0.018
  CD40: 0.014
  CD69: -0.029
  CD106/VCAM-1: 0.050
  CXCL8/IL-8: 0.00849
  IL-1alpha: 0.033
  M-CSF: -0.037
  SRB: -0.017
  SRB-Mphg: 0.018
  sIL-10: -0.065
[4]
  CCL2/MCP-1: -0.085
  CCL3/MIP-1alpha: -0.034
  CD40: 0.00225
  CD69: 0.036
  CD106/VCAM-1: 0.021
  CXCL8/IL-8: 0.012
  IL-1alpha: 0.019
  M-CSF: -0.046
  SRB: -0.017
  SRB-Mphg: 0.008
  sIL-10: -0.137
[5]
  CCL2/MCP-1: -0.107
  CCL3/MIP-1alpha: -0.064
  CD40: -0.00011
  CD69: 0.061
  CD106/VCAM-1: 0.027
  CXCL8/IL-8: 0.023
  IL-1alpha: 0.024
  M-CSF: -0.054
  SRB: -0.021
  SRB-Mphg: -0.007
  sIL-10: -0.266
/TH2, 1.00E0 nM
  CCL2/MCP-1: 0.046
  CCL26/Eotaxin-3: -0.081
  CD38: -0.015
  CD40: -0.063
  CD69: -0.031
  CD87/uPAR: -0.079
  CD106/VCAM-1: 0.031
  CXCL8/IL-8: 0.026
  CXCL9/MIG: 0.021
  Collagen IV: -0.017
  PBMC Cytotoxicity: -0.023
  SRB: -0.037
  sIL-17A: 0.106
  sIL-17F: -0.026
/TH2, 1.00E1 nM
  CCL2/MCP-1: -0.013
  CCL26/Eotaxin-3: -0.160
  CD38: -0.040
  CD40: -0.104
  CD69: -0.024
  CD87/uPAR: -0.129
  CD106/VCAM-1: 0.033
  CXCL8/IL-8: -0.063
  CXCL9/MIG: 0.013
  Collagen IV: -0.009
  PBMC Cytotoxicity: -0.008
  SRB: -0.062
  sIL-17A: 0.100
  sIL-17F: -0.047
/TH2, 1.00E2 nM
  CCL2/MCP-1: -0.044
  CCL26/Eotaxin-3: -0.160
  CD38: -0.008
  CD40: -0.119
  CD69: -0.012
  CD87/uPAR: -0.098
  CD106/VCAM-1: 0.035
  CXCL8/IL-8: -0.029
  CXCL9/MIG: 0.013
  Collagen IV: 0.016
  PBMC Cytotoxicity: -0.007
  SRB: -0.066
  sIL-17A: 0.165
  sIL-17F: 0.173
/TH2, 1.00E3 nM
  CCL2/MCP-1: -0.082
  CCL26/Eotaxin-3: -0.177
  CD38: -0.024
  CD40: -0.095
  CD69: -0.010
  CD87/uPAR: -0.180
  CD106/VCAM-1: 0.017
  CXCL8/IL-8: -0.045
  CXCL9/MIG: 0.011
  Collagen IV: -0.006
  PBMC Cytotoxicity: -0.011
  SRB: -0.062
  sIL-17A: 0.168
  sIL-17F: -0.013
/TH2, 1.00E4 nM
  CCL2/MCP-1: -0.093
  CCL26/Eotaxin-3: -0.166
  CD38: -0.035
  CD40: -0.115
  CD69: -0.043
  CD106/VCAM-1: 0.00327
  CXCL8/IL-8: -0.042
  CXCL9/MIG: 0.000193
  Collagen IV: -0.031
  PBMC Cytotoxicity: -0.017
  SRB: -0.065
  sIL-17A: 0.146
  sIL-17F: -0.041
BENo, 1.00E0 nM
  CCL26/Eotaxin-3: 0.071
  CD54/ICAM-1: 0.057
  CD87/uPAR: 0.050
  CXCL8/IL-8: 0.030
  CXCL9/MIG: 0.080
  CXCL10/IP-10: 0.112
  CXCL11/I-TAC: 0.105
  EGFR: 0.075
  HLA-DR: 0.134
  IL-1alpha: 0.066
  Keratin 8/18: 0.059
  MMP-1: 0.060
  MMP-9: -0.001
  PAI-I: -0.018
  SRB: 0.00452
  tPA: 0.028
  uPA: 0.026
BENo, 1.00E1 nM
  CCL26/Eotaxin-3: 0.036
  CD54/ICAM-1: 0.042
  CD87/uPAR: 0.062
  CXCL8/IL-8: 0.077
  CXCL9/MIG: 0.047
  CXCL10/IP-10: 0.119
  CXCL11/I-TAC: 0.092
  EGFR: 0.077
  HLA-DR: 0.115
  IL-1alpha: 0.048
  Keratin 8/18: 0.047
  MMP-1: 0.063
  MMP-9: -0.010
  PAI-I: -0.050
  SRB: 0.00136
  tPA: 0.026
  uPA: 0.026
BENo, 1.00E2 nM
  CCL26/Eotaxin-3: 0.038
  CD54/ICAM-1: -0.034
  CD87/uPAR: 0.110
  CXCL8/IL-8: 0.017
  CXCL9/MIG: 0.084
  CXCL10/IP-10: 0.121
  CXCL11/I-TAC: 0.082
  EGFR: 0.066
  HLA-DR: 0.075
  IL-1alpha: 0.078
  Keratin 8/18: 0.033
  MMP-1: 0.055
  MMP-9: 0.015
  PAI-I: -0.035
  SRB: 0.002
  tPA: 0.038
  uPA: 0.032
BENo, 1.00E3 nM
  CCL26/Eotaxin-3: 0.020
  CD54/ICAM-1: -0.011
  CD87/uPAR: 0.063
  CXCL8/IL-8: 0.028
  CXCL9/MIG: 0.087
  CXCL10/IP-10: 0.136
  CXCL11/I-TAC: 0.044
  EGFR: 0.034
  HLA-DR: 0.115
  IL-1alpha: 0.047
  Keratin 8/18: 0.017
  MMP-1: 0.039
  MMP-9: 0.056
  PAI-I: -0.090
